Source: patent publication US20220370384A1, “COMBINATIONS OF MEK INHIBITORS WITH CAP-DEPENDENT ENDONUCLEASE INHIBITORS” (priority 2019, published 2022)

What was measured:
Format in all cases: cell-based, influenza virus
[1] = test system: rgA/Victoria/3/75 (H3N2-PA-I38T)
[2] = test system: rgA/Giessen/6/09 (H1N1)-PA-I38T
[3] = test system: A/Mississippi/3/2001 (H1N1) mutant strain with the H275Y mutation in the NA gene

SMILES: O=C(O)c1ccc(F)c(F)c1Nc1ccc(I)cc1Cl [ATR002, 2-(2-chloro-4-iodophenylamino)-N-3,4-difluoro benzoic acid]
- antiviral activity [1]: revealed its potency against both variants
- antiviral effect in mutant strain compared with wild type [2]: steady effect as found in the wild type

SMILES: COC(=O)OCOc1c2n(ccc1=O)N([C@@H]1c3ccccc3SCc3c1ccc(F)c3F)[C@@H]1COCCN1C2=O [BLXM]
- activity lost in the mutant variant [1]: about 41%
- activity lower when investigated using the mutant strain [2]: 37%

SMILES: O=C(NOCC1CC1)c1ccc(F)c(F)c1Nc1ccc(I)cc1Cl [CI-1040]
- antiviral effectiveness [3]: comparable antiviral effect

SMILES: CCOC(=O)C1=C[C@@H](OC(CC)CC)[C@H](NC(C)=O)[C@@H](N)C1 [oseltamivir]
- antiviral effectiveness [3]: significant reduction in oseltamivir effectiveness
